What all share (assay): Cytotoxicity assay, SRB colorimetric assay
Holding throughout (assay type): cell-based
A general note: Sulforhodamine B stains cellular protein and so reports cell mass.

One series deals with HT29. The settings on record: for GI50: 50% cell growth inhibition; for TGI: total cell growth inhibition (cytostatic effect). The text has this: (§1) The aim of this assay is to evaluate the in vitro cytostatic (ability to delay or arrest tumor cell growth) or cytotoxic (ability to kill tumor cells) activity of the samples being tested.
(§2) A colorimetric assay, using sulforhodamine B (SRB) reaction has been adapted to provide a quantitative measurement of cell growth and viability (following the technique described by Skehan et al. J. Natl. Cancer Inst. 1990, 82, 1107-1112).
(§3) This form of assay employs SBS-standard 96-well cell culture microplates (Faircloth et al. Methods in Cell Science, 1988, 11(4), 201-205; Mosmann et al, Journal of Immunological Methods, 1983, 65(1-2), 55-63). All the cell lines used in this study were obtained from the American Type Culture Collection (ATCC) and derive from different types of human cancer.
(§4) Cells were maintained in Dulbecco's Modified Eagle Medium (DMEM) supplemented with 10% Fetal Bovine Serum (FBS), 2 mM L-glutamine, 100 U/mL penicillin and 100 U/mL streptomycin at 37° C., 5% CO2 and 98% humidity. For the experiments, cells were harvested from subconfluent cultures using trypsinization and resuspended in fresh medium before counting and plating.
(§5) Cells were seeded in 96 well microtiter plates, at 5×10^3 cells per well in aliquots of 150 μL, and allowed to attach to the plate surface for 18 hours (overnight) in drug free medium. After that, one control (untreated) plate of each cell line was fixed (as described below) and used for time zero reference value. Culture plates were then treated with test compounds (50 μL aliquots of 4× stock solutions in complete culture medium plus 4% DMSO) using ten serial dilutions (concentrations ranging from 10 to 0.00262 μg/mL) and triplicate cultures (1% final concentration of DMSO). After 72 hours treatment, the antitumor effect was measured by using the SRB methodology: Briefly, cells were washed twice with PBS, fixed for 15 min in 1% glutaraldehyde solution at room temperature, rinsed twice in PBS, and stained in 0.4% SRB solution for 30 min at room temperature. Cells were then rinsed several times with 1% acetic acid solution and air-dried at room temperature. SRB was then extracted in 10 mM trizma base solution and the absorbance measured in an automated spectrophotometric plate reader at 490 nm. Effects on cell growth and survival were estimated by applying the NCl algorithm (Boyd M R and Paull K D. Drug Dev. Res. 1995, 34, 91-104).
(§6) Using the mean±SD of triplicate cultures, a dose-response curve was automatically generated using nonlinear regression analysis. Three reference parameters were calculated (NCI algorithm) by automatic interpolation: GI50=compound concentration that produces 50% cell growth inhibition, as compared to control cultures; TGI=total cell growth inhibition (cytostatic effect), as compared to control cultures, and LC50=compound concentration that produces 50% net cell killing (cytotoxic effect).

The next series relates to MDA-MB-231. The settings on record: for GI50: 50% cell growth inhibition; for TGI: total cell growth inhibition (cytostatic effect).
Excerpt: as §1, §2, §3, §4, §5, §6

The test system of a further series is A549. The conditions noted are these: for TGI / GI50: A549 lung carcinoma (NSCLC), 72 hours treatment; for TGI: total cell growth inhibition (cytostatic effect); for GI50 / CC50: Homo sapiens, A549, 72 h; for GI50: 50% cell growth inhibition; for CC50: read-out: LC50, A549 lung carcinoma (NSCLC), 72 hours treatment, 50% net cell killing (cytotoxic effect).
Excerpt: as §1, §2, §3, §4, §5, §6

Where [1] appears, read: HT29 colorectal adenocarcinoma, 72 hours treatment.
The mark [2] stands for this setting: Homo sapiens, HT-29, 72 h, HT29 colorectal adenocarcinoma, 72 hours treatment.
Setting [3] is: Homo sapiens, HT-29, 72 h, read-out: LC50, HT29 colorectal adenocarcinoma, 72 hours treatment, 50% net cell killing (cytotoxic effect).
The mark [4] stands for this setting: Homo sapiens, MDA-MB-231, 72 h, MDA-MB-231 breast adenocarcinoma, 72 hours treatment.
Where [5] appears, read: Homo sapiens, MDA-MB-231, 72 h, read-out: LC50, MDA-MB-231 breast adenocarcinoma, 72 hours treatment, 50% net cell killing (cytotoxic effect).
Where [6] appears, read: MDA-MB-231 breast adenocarcinoma, 72 hours treatment.

“And” between values parts separate entries of the source, which are not always exact repeats. Equal values may be shown once. Read-outs that look alike come from different tables or passages of the source.

For `CC1(C)C(=O)C=C[C@]2(C)[C@H]3CC[C@]4(C)[C@@H](c5ccc(=O)oc5)[C@@H](Cl)C[C@]4(O)C3=CC[C@@H]12` [Aegomycin F], the GI50 (commonly the concentration that inhibits growth by half) in the series on HT29 (setting [1]) amounted to 36.5 nM; in the series on HT29 (setting [2]), 65.5 nM; in the series with MDA-MB-231 (setting [4]) it was 88 nM; in the series on MDA-MB-231 (setting [6]), 81.1 nM. Further, the TGI is 4.06E−7 Molar and 2.03E−7 Molar with HT29 (setting [1]); 2.71E−7 Molar and 2.03E−7 Molar in the series on MDA-MB-231 (setting [6]). Also, the LC50 (50% net cell killing) was 3160 nM in the series on HT29 (setting [3]) and 4860 nM in the series with HT29 (read-out: LC50, HT29 colorectal adenocarcinoma, 72 hours treatment, 50% net cell killing (cytotoxic effect)). For the same compound, the CC50 in the series on MDA-MB-231 (setting [5]) is 948 nM; in the series on MDA-MB-231 (read-out: LC50, MDA-MB-231 breast adenocarcinoma, 72 hours treatment, 50% net cell killing (cytotoxic effect)), 608 nM.

With `CO[C@H]1C=C[C@]2(C)[C@H]3C[C@@H](O)[C@]4(C)[C@@H](c5ccc(=O)oc5)C(Cl)(Cl)C[C@]4(O)C3=CC[C@H]2C1(C)C` [Aegomycin D], the TGI in the series on A549 was 1.28E−8 Molar; in the series with HT29 (setting [1]), 1.35E−7 Molar; in the series with MDA-MB-231 (setting [6]) it was 9.81E−8 Molar. In addition, the GI50 came to 8.64 nM in the series with A549, 31.4 nM in the series with HT29 (setting [2]) and 64.8 nM in the series on MDA-MB-231 (setting [4]). Further, the CC50 in the series on A549 is 18.3 nM; in the series with MDA-MB-231 (setting [5]), 173 nM. In addition, in the series on HT29 (setting [3]), the LC50 (50% net cell killing) is 1450 nM.

In the case of `CO[C@H]1[C@H]2O[C@H]2[C@]2(C=O)[C@H]3CC[C@]4(C)[C@@H](c5ccc(=O)oc5)C(Cl)(Cl)C[C@]4(O)C3=CC[C@H]2C1(C)C` [Aegomycin A], the values for the TGI in the series on A549, in the series on HT29 (setting [1]) and in the series with MDA-MB-231 (setting [6]) were 4.39E−9 Molar, 3.25E−8 Molar and 3.63E−8 Molar, respectively. For the same compound, the figures for the GI50 in the series with A549, with HT29 (setting [2]) and with MDA-MB-231 (setting [4]) were 3.82 nM, 10.5 nM and 19.1 nM, respectively. In addition, the CC50 was determined as 5.35 nM in the series with A549 and 61.1 nM in the series with MDA-MB-231 (setting [5]). Besides, the LC50 (50% net cell killing) in the series on HT29 (setting [3]) is 115 nM.

As for `CC1(C)C(=O)C=C[C@]2(C)[C@H]3CC[C@]4(C)[C@@H](c5ccc(=O)oc5)C(Cl)(Cl)C[C@]4(O)C3=CC[C@@H]12` [Aegomycin C], the figures for the TGI with A549, in the series with HT29 (setting [1]) and with MDA-MB-231 (setting [6]) were 1.72E−8 Molar, 1.05E−7 Molar and 1.97E−7 Molar, respectively. For the same compound, the results for the GI50 in the series on A549, in the series on HT29 (setting [2]) and in the series with MDA-MB-231 (setting [4]) were 7.54 nM, 9.84 nM and 62.8 nM, respectively. Further, the CC50 with A549 was determined as 41.9 nM; with MDA-MB-231 (setting [5]) it was 691 nM. Further, the LC50 (50% net cell killing) in the series on HT29 (setting [3]) is more than 20900 nM.

Take `CO[C@H]1[C@H]2O[C@H]2[C@]2(CO)[C@H]3CC[C@]4(C)[C@@H](c5ccc(=O)oc5)C(Cl)(Cl)C[C@]4(O)C3=CC[C@H]2C1(C)C` [Aegomycin B]: the TGI in the series with A549 was determined as 7.61E−9 Molar; with HT29 (setting [1]), 2.28E−7 Molar; with MDA-MB-231 (setting [6]), 1.67E−7 Molar. The figures for the GI50 in the series with A549, with HT29 (setting [2]) and in the series on MDA-MB-231 (setting [4]) were 5.9 nM, 30.4 nM and 76.1 nM, respectively. In addition, the CC50 in the series with A549 was found to be 11.4 nM; with MDA-MB-231 (setting [5]), 381 nM. For the same compound, the LC50 (50% net cell killing) with HT29 (setting [3]) came to 3040 nM.

For the compound `CO[C@H]1C=C[C@]2(C)[C@H]3CC[C@]4(C)[C@@H](c5ccc(=O)oc5)C(Cl)(Cl)C[C@]4(O)C3=CC[C@H]2C1(C)C` [Aegomycin E], the TGI with A549 was determined as 5.67E−8 Molar; in the series on HT29 (setting [1]) it was 4.86E−7 Molar; in the series on MDA-MB-231 (setting [6]), 3.65E−7 Molar. The values for the GI50 in the series with A549, in the series with HT29 (setting [2]) and in the series with MDA-MB-231 (setting [4]) were 42.6 nM, 118 nM and 197 nM, respectively. Besides, the CC50 stood at 75 nM with A549 and 750 nM with MDA-MB-231 (setting [5]). Besides, in the series with HT29 (setting [3]), the LC50 (50% net cell killing) was found to be 5270 nM.

As to `CO[C@H]1C=C[C@]2(C)[C@H]3CC[C@]4(C)[C@@H](c5ccc(=O)oc5)[C@@H](Cl)C[C@]4(O)C3=CC[C@H]2C1(C)C` [Aegomycin G], the TGI in the series with A549 came to 6.32E−8 Molar; with HT29 (setting [1]), 6.75E−7 Molar; in the series with MDA-MB-231 (setting [6]), 4.36E−7 Molar. The GI50 was 39.2 nM in the series on A549, 146 nM in the series with HT29 (setting [2]) and 170 nM in the series on MDA-MB-231 (setting [4]). Further, the CC50 with A549 is 111 nM; in the series on MDA-MB-231 (setting [5]), 1290 nM. Further, in the series with HT29 (setting [3]), the LC50 (50% net cell killing) amounted to 3920 nM.
